Measurements from ChEMBL document CHEMBL1125674, “Crystal, solution, and molecular modeling structural properties and muscarinic antagonist activity of azaprophen” (J Med Chem, 1991).

Columns and labels:
[1] = (§1) Inhibition of [3H]pirenzepine binding towards muscarinic acetylcholine receptor in rat brain.
[2] = Inhibition of [3H]QNB binding towards muscarinic acetylcholine receptor in rat heart
[3] = target: T1, Muscarinic acetylcholine receptors; M1 & M2 (Homo sapiens, UniProt P11229+P08172); assay: Inhibition of [3H]QNB binding towards muscarinic acetylcholine receptor in guinea pig ileum.; format: tissue-based, Cavia porcellus; details: target entry is the homologue from another species
T1 sequence (P11229 whole entry): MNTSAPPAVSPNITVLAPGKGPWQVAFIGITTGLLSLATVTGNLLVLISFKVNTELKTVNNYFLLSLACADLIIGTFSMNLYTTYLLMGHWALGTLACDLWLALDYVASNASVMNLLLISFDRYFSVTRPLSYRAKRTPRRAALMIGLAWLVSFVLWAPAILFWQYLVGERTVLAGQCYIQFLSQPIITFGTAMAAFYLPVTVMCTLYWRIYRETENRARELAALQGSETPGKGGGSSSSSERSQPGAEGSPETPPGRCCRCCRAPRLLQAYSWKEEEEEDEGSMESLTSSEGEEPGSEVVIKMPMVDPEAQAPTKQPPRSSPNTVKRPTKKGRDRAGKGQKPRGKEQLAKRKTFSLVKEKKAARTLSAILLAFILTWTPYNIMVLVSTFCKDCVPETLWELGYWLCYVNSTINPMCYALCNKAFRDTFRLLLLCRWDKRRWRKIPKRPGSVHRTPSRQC
T1 sequence (P08172 whole entry): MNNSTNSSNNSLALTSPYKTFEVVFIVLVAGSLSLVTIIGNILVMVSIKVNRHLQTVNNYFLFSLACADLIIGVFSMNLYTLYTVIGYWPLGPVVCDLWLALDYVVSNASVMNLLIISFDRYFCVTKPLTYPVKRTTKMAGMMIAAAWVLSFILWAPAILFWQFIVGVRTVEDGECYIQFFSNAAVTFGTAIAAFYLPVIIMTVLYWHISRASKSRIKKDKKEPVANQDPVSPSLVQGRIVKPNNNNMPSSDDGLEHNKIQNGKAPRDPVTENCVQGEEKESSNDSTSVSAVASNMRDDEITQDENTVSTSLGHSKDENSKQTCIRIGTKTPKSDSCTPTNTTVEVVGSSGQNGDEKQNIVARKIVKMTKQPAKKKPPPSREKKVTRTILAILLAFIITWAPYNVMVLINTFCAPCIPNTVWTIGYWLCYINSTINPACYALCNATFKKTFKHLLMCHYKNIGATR

[4] = Inhibition of [3H]QNB binding towards muscarinic acetylcholine receptor in rat brain; format: tissue-based
[5] = as §1; format: tissue-based
[6] = target: T2, Muscarinic acetylcholine receptor M1 (Homo sapiens, UniProt P11229); assay: Inhibition of [3H]QNB binding to CHO cells bearing transfected muscarinic acetylcholine receptor M1; format: cell-based, Cricetulus griseus
T2 sequence (P11229 whole entry): T1 sequence (P11229 whole entry)

[7] = target: Muscarinic acetylcholine receptor M3 (Homo sapiens, UniProt P20309); assay: Inhibition of [3H]QNB binding to CHO cells bearing transfected muscarinic acetylcholine receptor M3; format: cell-based, Cricetulus griseus
Chain of Muscarinic acetylcholine receptor M3 (P20309 whole entry, looked up): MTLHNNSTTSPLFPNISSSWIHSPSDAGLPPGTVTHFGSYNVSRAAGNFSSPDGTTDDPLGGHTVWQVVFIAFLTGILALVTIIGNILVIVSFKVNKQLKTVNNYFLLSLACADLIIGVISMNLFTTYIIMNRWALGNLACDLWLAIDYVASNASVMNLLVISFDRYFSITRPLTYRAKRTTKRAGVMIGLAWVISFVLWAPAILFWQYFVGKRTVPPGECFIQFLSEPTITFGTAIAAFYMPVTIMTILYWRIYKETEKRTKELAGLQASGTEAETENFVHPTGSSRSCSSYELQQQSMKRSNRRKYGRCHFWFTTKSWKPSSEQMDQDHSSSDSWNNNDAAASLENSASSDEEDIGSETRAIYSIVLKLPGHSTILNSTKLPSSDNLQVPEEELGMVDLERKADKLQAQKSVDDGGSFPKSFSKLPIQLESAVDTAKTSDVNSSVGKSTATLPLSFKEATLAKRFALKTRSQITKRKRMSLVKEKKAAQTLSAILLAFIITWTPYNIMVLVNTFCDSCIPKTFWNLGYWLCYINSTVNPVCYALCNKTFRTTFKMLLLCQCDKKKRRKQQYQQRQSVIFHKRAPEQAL

SMILES	Ki [1]	Ki [2]	Ki [3]	Ki [4]	Ki [5]	Ki [6]	Ki [7]
CN1[C@@H]2CC[C@H]1C[C@@H](OC(=O)C(CO)c1ccccc1)C2 (stereo partly drawn) [ATROPINE]	0.545 nM	0.545 nM	–	–	–	–	–
CN1CC2CC(OC(=O)C(C)(c3ccccc3)c3ccccc3)CC1C2 (stereo not drawn) [AZAPROPHEN]	–	0.13 nM	0.279 nM	0.118 nM	0.196 nM	0.088 nM	0.472 nM
